# Read-outs that look alike come from different tables or passages of the source.
# Columns and labels:
# [1] = biological target: T1, DCAF15-RBM39 ternary complex (Homo sapiens, UniProt Q14498+Q66K64); assay: Compound-induced DCAF15-RBM39 ternary complex formation, AlphaLISA; assay type: biochemical
# T1 construct: (RRM2)
# Protocol: Compound-induced DCAF15-RBM39 ternary complex formation was monitored using AlphaLISA® assays (Perkin Elmer, Waltham, MA). […] 9.8 ul of this protein mixture was then mixed with the compounds in the assay plate and incubated for one hour at room temperature. Reaction mixtures with no compounds added were included as negative controls, while a His-tagged and biotinylated GST protein was included to track general assay performance. […] The beads were then added to the assay plate sequentially with incubation at room temperature for 1-2 hours after each addition.
# [2] = biological target: DCAF15 (Homo sapiens, UniProt Q66K64); assay: Binary interaction between compounds and DCAF15, HTRF competition assay; assay type: binding
# Chain of DCAF15 (Q66K64 whole entry): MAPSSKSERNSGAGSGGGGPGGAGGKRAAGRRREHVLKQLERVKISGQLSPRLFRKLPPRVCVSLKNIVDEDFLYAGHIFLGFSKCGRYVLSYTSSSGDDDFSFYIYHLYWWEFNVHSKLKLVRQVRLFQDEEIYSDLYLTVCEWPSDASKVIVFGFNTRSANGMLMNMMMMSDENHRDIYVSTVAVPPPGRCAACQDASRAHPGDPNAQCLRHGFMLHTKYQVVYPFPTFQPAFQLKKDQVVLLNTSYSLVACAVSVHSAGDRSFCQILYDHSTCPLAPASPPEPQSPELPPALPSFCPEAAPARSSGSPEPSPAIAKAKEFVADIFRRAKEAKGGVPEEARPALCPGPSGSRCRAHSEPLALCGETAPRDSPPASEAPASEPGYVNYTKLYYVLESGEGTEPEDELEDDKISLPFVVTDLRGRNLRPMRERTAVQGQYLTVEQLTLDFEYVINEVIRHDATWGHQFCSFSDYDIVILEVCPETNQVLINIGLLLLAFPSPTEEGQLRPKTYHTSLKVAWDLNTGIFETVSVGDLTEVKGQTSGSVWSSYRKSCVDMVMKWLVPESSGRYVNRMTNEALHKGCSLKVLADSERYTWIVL
# Chain of DCAF15 (Q16531 whole entry partner): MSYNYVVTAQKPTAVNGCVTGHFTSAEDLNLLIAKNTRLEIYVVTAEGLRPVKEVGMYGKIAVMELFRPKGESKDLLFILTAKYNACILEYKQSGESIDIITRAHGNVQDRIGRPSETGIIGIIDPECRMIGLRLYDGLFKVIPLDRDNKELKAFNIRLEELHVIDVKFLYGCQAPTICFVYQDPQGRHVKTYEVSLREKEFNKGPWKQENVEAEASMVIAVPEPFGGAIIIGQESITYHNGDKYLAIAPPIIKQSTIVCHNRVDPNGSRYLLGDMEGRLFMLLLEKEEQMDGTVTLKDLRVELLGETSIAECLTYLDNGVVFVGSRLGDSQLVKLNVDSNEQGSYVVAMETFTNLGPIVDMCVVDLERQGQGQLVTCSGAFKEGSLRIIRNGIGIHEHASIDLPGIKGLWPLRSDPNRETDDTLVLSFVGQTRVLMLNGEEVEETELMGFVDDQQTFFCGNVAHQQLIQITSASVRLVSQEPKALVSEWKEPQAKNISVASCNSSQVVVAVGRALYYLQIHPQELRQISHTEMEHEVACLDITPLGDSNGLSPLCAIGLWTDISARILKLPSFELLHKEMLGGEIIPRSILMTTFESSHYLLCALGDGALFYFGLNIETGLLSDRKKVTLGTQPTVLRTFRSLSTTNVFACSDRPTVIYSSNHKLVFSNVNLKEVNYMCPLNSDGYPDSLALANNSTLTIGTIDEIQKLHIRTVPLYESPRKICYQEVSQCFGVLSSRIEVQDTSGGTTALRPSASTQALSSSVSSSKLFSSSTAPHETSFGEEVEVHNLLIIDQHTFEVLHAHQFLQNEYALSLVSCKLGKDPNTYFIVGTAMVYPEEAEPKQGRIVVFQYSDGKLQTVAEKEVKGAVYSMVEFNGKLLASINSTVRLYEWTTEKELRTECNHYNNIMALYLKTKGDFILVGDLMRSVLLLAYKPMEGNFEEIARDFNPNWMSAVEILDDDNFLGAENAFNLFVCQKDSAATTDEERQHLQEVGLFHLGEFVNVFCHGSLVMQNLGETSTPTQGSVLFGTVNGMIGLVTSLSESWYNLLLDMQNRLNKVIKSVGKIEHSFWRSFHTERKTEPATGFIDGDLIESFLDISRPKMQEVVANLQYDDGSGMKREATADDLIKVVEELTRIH
# Protocol: DCAF15 interactions with test compounds were monitored using HTRF competition assays (Cisbio, Bedford, MA). […] These two solutions were mixed and incubated for 15 min at room temperature. 9.8 ul of the tracer solution and 10 ul of the DCAF15/mAb Anti-6His-Eu cryptate Gold mixture were added sequentially to each well in the assay plate. Reaction mixtures with no DCAF15 added were included as […] controls. […] Binding was estimated based on ratiometric analysis and titration curves were generated in GraphPad Prism (7.00, GraphPad, La Jolla, CA).
# [3] = AlphaLISA, His-tagged DCAF15 complex and biotin-carrying RBM39, read-out: Ternary-RBM39 (RRM2) EC50
# [4] = HTRF competition with Alexa Fluor 647 tracer, His-tagged DCAF15 complex, read-out: DCAF15 IC50
# T1 sequence (Q66K64 whole entry): as the sequence (Q66K64 whole entry) above
# T1 sequence (Q14498 250-328 limits assumed): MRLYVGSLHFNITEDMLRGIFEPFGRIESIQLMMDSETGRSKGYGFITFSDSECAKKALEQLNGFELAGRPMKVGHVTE
# T1 sequence (Q16531 whole entry partner): as the sequence (Q16531 whole entry partner) above
"EC50 [1, 3] [µM]","IC50 [2, 4] [µM]",SMILES,EC50 [1] [µM],IC50 [2] [µM]
< 20,< 20,"Cc1ccc(CCNS(=O)(=O)c2ccc(S(=O)(=O)Nc3ccc(Cl)c4c(Cl)c[nH]c34)cc2)o1 [Compound 25, N^1-(3,4-dichloro-1H-indol-7-yl)-N4_ (2-(5-methylfuran-2-yl)ethyl)benzene-1,4-disulfonamide]",,
< 1,< 5,"O=C(CCCNS(=O)(=O)c1ccc(S(=O)(=O)Nc2ccc(Cl)c3c(Cl)c[nH]c23)cc1)N1CCCC1 [Compound 27, N^1-(3,4-dichloro-1H-indol-7-yl)-N^4-(4-oxo-4-(pyrrolidin-1-yl)butyl)benzene-1,4-disulfonamide]",,
< 1,< 100,"O=S(=O)(Nc1ccc(Cl)c2c(Cl)c[nH]c12)c1ccc(S(=O)(=O)NC2CCOCC2)cc1 [Compound 28, N^1-(3,4-dichloro-1H-indol-7-yl)-N^4-(tetrahydro-2H-pyran-4-yl)benzene-1,4-disulfonamide]",,
< 1,< 5,"CCCN(C1CCNCC1)S(=O)(=O)c1ccc(S(=O)(=O)Nc2ccc(Cl)c3c(Cl)c[nH]c23)cc1 [Compound 30, N^1-(3,4-dichloro-1H-indol-7-yl)-N^4-(piperidin-4-yl)-N^4-propylbenzene-1,4-disulfonamide]",,
< 1,< 5,"O=C1CCC(NS(=O)(=O)c2ccc(S(=O)(=O)Nc3ccc(Cl)c4c(Cl)c[nH]c34)cc2)CN1 (stereo not drawn) [Compound 31, N^1-(3,4-dichloro-1H-indol-7-yl)-N^4-(6-oxopiperidin-3-yl)benzene-1,4-disulfonamide]",,
< 1,< 5,"CN1CC(NS(=O)(=O)c2ccc(S(=O)(=O)Nc3ccc(Cl)c4c(Cl)c[nH]c34)cc2)CCC1=O (stereo not drawn) [Compound 32, N^1-(3,4-dichloro-1H-indol-7-yl)-N^4-(1-methyl-6-oxopiperidin-3-yl)benzene-1,4-disulfonamide]",,
< 1,< 5,"O=C1NCCCCC1NS(=O)(=O)c1ccc(S(=O)(=O)Nc2ccc(Cl)c3c(Cl)c[nH]c23)cc1 (stereo not drawn) [Compound 33, N^1-(3,4-dichloro-1H-indol-7-yl)-N^4-(2-oxoazepan-3-yl)benzene-1,4-disulfonamide]",,
< 5,< 5,"O=S(=O)(Nc1ccc(Cl)c2c(Cl)c[nH]c12)c1ccc(S(=O)(=O)N2CCC(n3ccnn3)C2)cc1 (stereo not drawn) [Compound 36, 4-((3-(1H-1,2,3-triazol-1-yl)pyrrolidin-1-yl)sulfonyl)-N-(3,4-dichloro-1H-indol-7-yl)benzenesulfonamide]",,
< 1,< 5,"O=S(=O)(Nc1ccc(Cl)c2c(Cl)c[nH]c12)c1ccc(S(=O)(=O)N2CCC(O)CC2)cc1 [Compound 38, N-(3,4-dichloro-1H-indol-7-yl)-4-((4-hydroxypiperidin-1-yl)sulfonyl)benzene sulfonamide]",,
< 5,< 20,"O=S(=O)(Nc1ccc(Cl)c2c(Cl)c[nH]c12)c1ccc(S(=O)(=O)N2CCC(Oc3cccnc3)CC2)cc1 [Compound 39, N-(3,4-dichloro-1H-indol-7-yl)-4-((4-(pyridin-3-yloxy)piperidin-1-yl)sulfonyl)benzene sulfonamide]",,
< 1,< 5,"N#Cc1cc(S(=O)(=O)Nc2ccc(Cl)c3c(Cl)c[nH]c23)ccc1S(=O)(=O)N1CCNCC1 [Compound 43, 3-cyano-N-(3,4-dichloro-1H-indol-7-yl)-4-(piperazin-1-ylsulfonyl)benzenesulfonamide]",,
< 1,< 5,"O=S(=O)(Nc1ccc(Cl)c2c(Cl)c[nH]c12)c1ccc(S(=O)(=O)N2CCNCC2)cc1F [Compound 44, N-(3,4-dichloro-1H-indol-7-yl)-2-fluoro-4-(piperazin-1-ylsulfonyl)benzenesulfonamide]",,
< 1,< 5,"O=S(=O)(Nc1ccc(Cl)c2c(Cl)c[nH]c12)c1ccc(S(=O)(=O)N2CCNCC2)c(F)c1 [Compound 45, N-(3,4-dichloro-1H-indol-7-yl)-3-fluoro-4-(piperazin-1-ylsulfonyl)benzenesulfonamide]",,
< 1,< 5,"CCCC1CNCCN1S(=O)(=O)c1ccc(S(=O)(=O)Nc2ccc(Cl)c3c(Cl)c[nH]c23)cc1 (stereo not drawn) [Compound 47, N-(3,4-dichloro-1H-indol-7-yl)-4-((2-propylpiperazin-1-yl)sulfonyl)benzenesulfonamide]",,
,,"O=S(=O)(Nc1ccc(Cl)c2c(Cl)c[nH]c12)c1ccc(S(=O)(=O)N2CCN(CCOCCc3ccccn3)CC2)cc1 [Compound 51, N-(3,4-dichloro-1H-indol-7-yl)-4-((4-(2-(2-(pyridin-2-yl)ethoxy)ethyl)piperazin-1-yl)sulfonyl)benzenesulfonamide]",< 1,< 20
< 1,< 5,"O=S(=O)(Nc1ccc(Cl)c2c(Cl)c[nH]c12)c1ccc(S(=O)(=O)N2CCCNCC2)cc1 [Compound 52, 4-((1,4-diazepan-1-yl)sulfonyl)-N-(3,4-dichloro-1H-indol-7-yl)benzene sulfonamide]",,
< 5,< 5,"Cc1nc2c(n1C)CCN(S(=O)(=O)c1ccc(S(=O)(=O)Nc3ccc(Cl)c4c(Cl)c[nH]c34)cc1)C2 [Compound 53, N-(3,4-dichloro-1H-indol-7-yl)-4-((1,2-dimethyl-1,4,6,7-tetrahydro-5H-imidazo[4,5-c]pyridin-5-yl)sulfonyl)benzene sulfonamide]",,
< 5,< 100,"O=S(=O)(Nc1ccc(Cl)c2c(Cl)c[nH]c12)c1ccc(S(=O)(=O)N2CCc3[nH]c(-c4ccccc4)nc3C2)cc1 [Compound 54, N-(3,4-dichloro-1H-indol-7-yl)-4-((2-phenyl-1,4,6,7-tetrahydro-5H-imidazo[4,5-c]pyridin-5-yl)sulfonyl) benzene sulfonamide]",,
< 5,< 20,"CC(C)(C)OC(=O)N1CCC2(CC1)CN(S(=O)(=O)c1ccc(S(=O)(=O)Nc3ccc(Cl)c4c(Cl)c[nH]c34)cc1)CCO2 [Compound 55, tert-butyl 4-((4-(N-(3,4-dichloro-1H-indol-7-yl)sulfamoyl)phenyl)sulfonyl)-1-oxa-4,9-diazaspiro[5.5] undecane-9-carboxylate]",,
< 1,< 5,"O=S(=O)(Nc1ccc(Cl)c2c(Cl)c[nH]c12)c1ccc(S(=O)(=O)C2CCNCC2)cc1 [Compound 57, N-(3,4-dichloro-1H-indol-7-yl)-4-(piperidin-4-ylsulfonyl)benzene sulfonamide]",,
< 1,< 5,"CN1CCC(S(=O)(=O)c2ccc(S(=O)(=O)Nc3ccc(Cl)c4c(Cl)c[nH]c34)cc2)CC1 [Compound 58, N-(3,4-dichloro-1H-indol-7-yl)-4-((1-methylpiperidin-4-yl)sulfonyl)benzene sulfonamide]",,
< 1,< 5,"O=S(=O)(Nc1ccc(Cl)c2c(Cl)c[nH]c12)c1ccc(C2(N3CCNCC3)CC2)cc1 [Compound 59, N-(3,4-dichloro-1H-indol-7-yl)-4-(1-(piperazin-1-yl)cyclopropyl) benzenesulfonamide]",,
< 1,< 5,"O=S(=O)(Nc1ccc(Cl)c2c(Cl)c[nH]c12)c1ccc(C2(N3CCNCC3)COC2)cc1 [Compound 60, N-(3,4-dichloro-1H-indol-7-yl)-4-(3-(piperazin-1-yl)oxetan-3-yl)benzenesulfonamide]",,
< 5,< 5,"Cn1cc(-c2ccc(S(=O)(=O)Nc3ccc(Cl)c4c(Cl)c[nH]c34)cc2)cn1 [Compound 61, N-(3,4-dichloro-1H-indol-7-yl)-4-(1-methyl-1H-pyrazol-4-yl)benzenesulfonamide]",,
< 1,< 5,"CCCN(c1ccc(S(=O)(=O)Nc2ccc(Cl)c3c(Cl)c[nH]c23)cc1)S(=O)(=O)C1CCNCC1 [Compound 63, N-(4-(N-(3,4-dichloro-1H-indol-7-yl)sulfamoyl)phenyl)-N-propylpiperidine-4-sulfonamide]",,
< 5,< 100,"CN1CCC(S(=O)(=O)Nc2ccc(S(=O)(=O)Nc3ccc(Cl)c4c(Cl)c[nH]c34)cc2)CC1 [Compound 64, N-(4-(N-(3,4-dichloro-1H-indol-7-yl)sulfamoyl)phenyl)-1-methylpiperidine-4-sulfonamide]",,
< 1,< 5,"CCCN(c1ccc(S(=O)(=O)Nc2ccc(Cl)c3c(Cl)c[nH]c23)cc1)S(=O)(=O)N1CCN(C)CC1 [Compound 66, N-(4-(N-(3,4-dichloro-1H-indol-7-yl)sulfamoyl)phenyl)-4-methyl-N-propylpiperazine-1-sulfonamide]",,
< 1,< 5,"CCCN(c1ccc(S(=O)(=O)Nc2ccc(Cl)c3c(Cl)c[nH]c23)cc1)S(=O)(=O)N1CCNCC1 [Compound 67, N-(4-(N-(3,4-dichloro-1H-indol-7-yl)sulfamoyl)phenyl)-N-propylpiperazine-1-sulfonamide]",,
< 1,< 5,"CCN=S(=O)(c1ccc(S(=O)(=O)Nc2ccc(Cl)c3c(Cl)c[nH]c23)cc1)C1CCNCC1 (stereo not drawn) [Compound 68, N-(3,4-dichloro-1H-indol-7-yl)-4-(N-ethylpiperidine-4-sulfonimidoyl)benzenesulfonamide]",,
< 1,< 100,"CCN=S(=O)(c1ccc(S(=O)(=O)Nc2ccc(Cl)c3c(Cl)c[nH]c23)cc1)N1CCNCC1 (stereo not drawn) [Compound 69, N-(3,4-dichloro-1H-indol-7-yl)-4-(N-ethylpiperazine-1-sulfonimidoyl)benzenesulfonamide]",,

# From US20240190821A1, “SULFONAMIDE SUBSTITUTED N-(1H-INDOL-7-YL)BENZENESULFONAMIDES AND USES THEREOF” (Triana Biomedicines, Inc., priority 2021, published 2024)
